One assay concerns bladder. Nature of the assay: animal or person. As to conditions: Rattus norvegicus, po, read-out: Contraction interval.
Assay [1] relates to detrusor muscle (isolated urinary bladder strips). Nature of the assay: Relaxation of contraction induced by 50 mmol/l KCl in isolated urinary bladder strips (Test Example 1). Details: species or system guinea pig (male albino Hartley). As to conditions: Cavia porcellus, 0.5 h; KCl 50 mmol/l; cumulative, contact time 30 minutes; 50% relaxant of maximum response. From the text: (§1) The activity of Compounds (I) as therapeutic agents for pollakiuria and urinary incontinence is described below. In the following Test Examples 1 and 2, IC50 value was defined as the concentration at which a test compound produces 50% relaxant of maximum response of detrusor muscle.
(§2) Male albino Hartley guinea pigs (350-550 g) were used as test animals. Each animal was exsanguinated to death under sodium pentobarbital anesthesia. The lower abdominal cavity was opened and its bladder was positioned. The connective tissue and the fat tissue around the bladder were removed, and the bladder was washed. After bilateral pelvic nerves on the surface of the abdominal side of the bladder were dissected, the bladder was taken out on the entrance of ureter. The bladder was washed with a Krebs-Henseleit buffer [composition (mM): NaCl 118, KCl 4.7, MgSO4 1.2, KH2 PO4 1.2, CaCl2 2.5, NaHCO3 25, and D-glucose 11.1], and then put on a gauze patch soaked in the buffer in a Petri dish. The dome and the trigone of the bladder were cut away. The back of the bladder was cut vertically in the middle with scissors, and the bladder was put flat on the gauze patch. The mucosa of the bladder was removed. The back of the bladder was cut vertically to get 6 strips which are ca. 2.0 mm wide and ca. 10 mm long.
(§3) Each strip was tied at one end to plastic rod and placed in a 20 ml organ bath containing a Krebs-Henseleit solution which was maintained at 37° C. and bubbled vigorously with a gas mixture of 5% CO2 and 95% O2. The pH of the solution was adjusted to about 7.4. The other end of the strip was tied via silk thread to a force displacement transducer (NIHON KODEN TB-611T). The transducer was connected to a polygraph (NIHON KODEN AP-621G), and the changes in tension were recorded on a recorder (YOKOGAWA type 3066). The polygraph was graduated by 0.5 g/cm.
After the tissue was incubated in the buffer for 15 minutes without preloading, tension was added thereto for about one hour. The preloading tension added was 1.5 g and it was relaxed to about 1 g. The strips were allowed to equilibrate until their contractions became constant and tension was adjusted to 1 g. After this equilibrium period, 50 mmol/l KCl (the whole content in the bath) was added, and the tissue was washed 10 minutes later. KCl was added to the tissue at intervals of 30 minutes, followed by washing 10 minutes later, and KCl was applied repeatedly until the developed tension induced by KCl becomes constant. When the tissue was confirmed to contract constantly by the application of KCl and relax to the steady state after washing, 50 mmol/l KCl was applied again. After the tissue reached the steady state and the base line was obtained, a test compound was applied by the cumulative method (half-logarithmic increment). The contact time at each concentration was 30 minutes. The activity of the compound was expressed as the maximum relaxation rate (%) against the tension induced by the agonist.

Assay [2] shares this test system. Nature of the assay: Relaxation of rhythmic contraction induced by 15 mmol/l KCl in isolated urinary bladder strips (Test Example 2). Details: species or system guinea pig (male albino Hartley). The note with it: Cavia porcellus; KCl 15 mmol/l; cumulative, contact time 15-30 minutes; 50% relaxant of maximum response.
Text: as §1, §2, §3
Isolated urinary bladder strips were prepared in the same manner as in Test Example 1, and the tension of the preparation was measured. After the tension of the tissue was adjusted to be a steady state at 1 g, 15 mmol/l KCl was applied. After the rhythmic contraction was confirmed to appear by KCl, the tissue was washed. Then, 15 mmol/l KCl was applied again. After the rhythmic contraction induced by KCl became constant, a test compound was applied by the cumulative method (half-logarithmic increment). The contact time at each concentration was 15-30 minutes. The activity of the compound was expressed as the maximum relaxation rate (%) against the tension induced by the agonist.

Experimental findings from patent US6211227A, “Tricyclic compounds” (Kyowa Hakko Kogyo Co., Ltd., priority 1997, dated 2001) are described below.

Structures are written as SMILES. Like-named read-outs stand apart in the source and are kept apart here.

In general, IC50 refers to the concentration that gives 50% inhibition. A low value points to greater potency in that assay.

As for `O=C1c2ccc(NC(=O)C(F)(F)F)cc2S(=O)(=O)Cc2ccsc21` [Compound 3-5, 5,5-Dioxo-7-trifluoroacetylamino-4,10-dihydrothieno[3,2-c][1]benzothiepin-10-one], the response vs control in vivo at 1 mg/kg in the assay with bladder (1 h) was 131 ± 12%; in the assay on bladder (2 h), 152 ± 4%; with bladder (3 h), 145 ± 18%; with bladder (4 h) it was 157 ± 13%; in the assay with bladder (5 h), 158 ± 4%. Moreover, the half-inhibitory concentration (IC50) came to 8.7 µM in assay [1] and 8.3 µM in assay [2].
Regarding `CC(O)(C(=O)Nc1ccc2c(c1)S(=O)(=O)Cc1ccsc1C2=O)C(F)(F)F` (centres unmarked) [Compound 1-2, 5,5-Dioxo-7-(3,3,3-trifluoro-2-hydroxy-2-methylpropanoylamino)-4,10-dihydrothieno[3,2-c][1]benzothiepin-10-one], the response vs control in vivo at 1 mg/kg in the assay with bladder (1 h) turned out to be 116 ± 8%; in the assay on bladder (2 h) it was 136 ± 5%; in the assay on bladder (3 h), 149 ± 9%; in the assay on bladder (4 h), 143 ± 5%; in the assay with bladder (5 h) it was 139 ± 6%. The values for the IC50 in assay [1] and in assay [2] were > 10 µM and 5.1 µM, respectively.
For `CC(O)(C(=O)Nc1cccc2c1C(=O)c1ccccc1CS2(=O)=O)C(F)(F)F` (centres unmarked) [Compound 1-3, 5,5-Dioxo-1-(3,3,3-trifluoro-2-hydroxy-2-methylpropanoylamino)-6,11-dihydrodibenzo[b,e]thiepin-11-one], the response vs control in vivo at 1 mg/kg was determined as 123 ± 15% with bladder (1 h); 135 ± 11% in the assay on bladder (2 h); 144 ± 10% in the assay on bladder (3 h); 160 ± 19% in the assay with bladder (4 h); 160 ± 16% in the assay with bladder (5 h). Also, the figures for the IC50 in assay [1] and in assay [2] were > 10 µM and 6.3 µM, respectively.
Take `CC(O)(C(=O)Nc1cccc2c1C(=O)c1sccc1CS2(=O)=O)C(F)(F)F` (centres unmarked) [Compound 1-1, 5,5-Dioxo-9-(3,3,3-trifluoro-2-hydroxy-2-methylpropanoylamino)-4,10-dihydrothieno[3,2-c][1]benzothiepin-10-one]: the response vs control in vivo at 1 mg/kg in the assay with bladder (1 h) came to 138 ± 15%; with bladder (2 h), 166 ± 16%; in the assay with bladder (3 h), 170 ± 6%; in the assay with bladder (4 h), 181 ± 16%; with bladder (5 h) it was 203 ± 21%. Moreover, the response vs control in vivo at 10 mg/kg amounted to 124 ± 4% in the assay with bladder (1 h); 139 ± 9% in the assay with bladder (2 h); 154 ± 14% in the assay on bladder (3 h); 176 ± 13% with bladder (4 h); 190 ± 15% in the assay on bladder (5 h). Further, the IC50 in assay [1] is > 10 µM; in assay [2], 2.6 µM.
On to `C[C@](O)(C(=O)Nc1cccc2c1C(=O)c1sccc1CS2(=O)=O)C(F)(F)F` [Compound 1-25, (S)-(+)-5,5-Dioxo-9-(3,3,3-trifluoro-2-hydroxy-2-methylpropanoylamino)-4,10-dihydrothieno[3,2-c][1]benzothiepin-10-one], for which the response vs control in vivo at 0.1 mg/kg in the assay with bladder (1 h) worked out at 108 ± 9%; in the assay on bladder (2 h), 140 ± 9%; with bladder (3 h), 140 ± 12%; in the assay with bladder (4 h), 148 ± 13%; in the assay with bladder (5 h), 163 ± 17%. The response vs control in vivo at 3 mg/kg in the assay with bladder (1 h) was determined as 129 ± 8%; in the assay with bladder (2 h) it was 125 ± 14%; with bladder (3 h) it was 143 ± 22%; with bladder (4 h) it was 165 ± 22%; in the assay on bladder (5 h), 161 ± 13%. The response vs control in vivo at 10 mg/kg in the assay with bladder (1 h) was determined as 133 ± 15%; in the assay on bladder (2 h) it was 128 ± 10%; with bladder (3 h), 149 ± 19%; with bladder (4 h), 180 ± 22%; in the assay on bladder (5 h) it was 183 ± 14%. Moreover, the half-inhibitory concentration (IC50) in assay [1] is 10.5 µM; in assay [2], 2.6 µM.
For the molecule `CC(O)(C(=O)Nc1cccc2c1C(=O)c1ccsc1CS2(=O)=O)C(F)(F)F` (centres unmarked) [Compound 1-5, 9,9-Dioxo-5-(3,3,3-trifluoro-2-hydroxy-2-methylpropanoylamino)-4,10-dihydrothieno[2,3-c][1]benzothiepin-4-one], the figures for the 50% inhibitory concentration (IC50) in assay [1] and in assay [2] were 8.7 µM and 4 µM, respectively.
In the case of `C[C@@](O)(C(=O)Nc1cccc2c1C(=O)c1sccc1CS2(=O)=O)C(F)(F)F` [Compound 1-26, (R)-(-)-5,5-Dioxo-9-(3,3,3-trifluoro-2-hydroxy-2-methylpropanoylamino)-4,10-dihydrothieno [3,2-c][1]benzothipin-10-one], the response vs control in vivo at 0.1 mg/kg with bladder (1 h) amounted to 118 ± 8%; with bladder (2 h) it was 137 ± 7%; with bladder (3 h), 145 ± 7%; with bladder (4 h), 152 ± 8%; in the assay on bladder (5 h), 168 ± 7%. Also, the half-inhibitory concentration (IC50) in assay [1] was found to be 6.3 µM; in assay [2], 6.6 µM.
